Laboratory results reported in the supplement of paper PMC10307832.

Tests used:
Test in all cases: relative viability (nuclei count vs DMSO), 5 days (fraction); higher = more cells survive
[1] = compound: CC(C)(C)c1cc(NC(=O)Nc2ccc(-c3cn4c(n3)sc3cc(OCCN5CCOCC5)ccc34)cc2)no1 [Quizartinib] + COc1cc2c(Oc3ccc(NC(=O)C4(C(=O)Nc5ccc(F)cc5)CC4)cc3F)ccnc2cc1OCCCN1CCOCC1 [Foretinib] (partner 0.25 µM)
Method in brief: (§1)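 For relative viability, nuclei counts in treated wells were divided by those in vehicle wells. Lung cancer cell lines had been pin-tool dosed in 1536-well plates the day after seeding and cultured for 5 days, then fixed and stained in one step (final 0.05% Triton X-100, 1% formaldehyde, 1 ug/ml Hoechst) and imaged at 4×. Doses were one drug alone or a fixed anchor-drug dose plus five library-drug doses (not always all listed) in √10 steps, and values are duplicate-plate medians.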

[2] = compound: COCC[n+]1c2c(n(Cc3cnccn3)c1C)C(=O)c1ccccc1C2=O [YM155] + CC1(C)CCC(c2ccc(Cl)cc2)=C(CN2CCN(c3ccc(C(=O)NS(=O)(=O)c4ccc(N[C@H](CCN5CCOCC5)CSc5ccccc5)c(S(=O)(=O)C(F)(F)F)c4)cc3)CC2)C1 [Navitoclax] (partner 0.5 µM)
Method in brief: as §1

[3] = compound: CC(C)(C)c1cc(NC(=O)Nc2ccc(-c3cn4c(n3)sc3cc(OCCN5CCOCC5)ccc34)cc2)no1 [Quizartinib] + Nc1ncn([C@H]2C[C@H](O)[C@@H](CO)O2)c(=O)n1 [Decitabine] (partner 2 µM)
Method in brief: as §1

[4] = compound: COCC[n+]1c2c(n(Cc3cnccn3)c1C)C(=O)c1ccccc1C2=O [YM155] + Nc1ncn([C@H]2C[C@H](O)[C@@H](CO)O2)c(=O)n1 [Decitabine] (partner 2 µM)
Method in brief: as §1

| Cell Line | relative viability ([1]; first compound 0.001 µM) | relative viability ([1]; first compound 0.003162 µM) | relative viability ([1]; first compound 0.01 µM) | relative viability ([1]; first compound 0.03162 µM) | relative viability ([1]; first compound 0.1 µM) | relative viability ([2]; first compound 0.002 µM) | relative viability ([2]; first compound 0.006325 µM) | relative viability ([2]; first compound 0.02 µM) | relative viability ([2]; first compound 0.06325 µM) | relative viability ([3]; first compound 0.001 µM) | relative viability ([3]; first compound 0.003162 µM) | relative viability ([3]; first compound 0.01 µM) | relative viability ([3]; first compound 0.03162 µM) | relative viability ([3]; first compound 0.1 µM) | relative viability ([4]; first compound 0.002 µM) | relative viability ([4]; first compound 0.006325 µM) | relative viability ([4]; first compound 0.02 µM) | relative viability ([4]; first compound 0.06325 µM) |
| --- | --- | --- | --- | --- | --- | --- | --- | --- | --- | --- | --- | --- | --- | --- | --- | --- | --- | --- |
| 201T | 1.07 | 0.998 | 1.09 | 0.942 | 1.01 | 1.26 | 1.18 | 1.17 | 1.23 | 0.812 | 0.799 | 0.882 | 0.847 | 0.87 | 0.825 | 0.838 | 0.851 | 0.88 |
| A549 | 0.949 | 0.975 | 1.08 | 0.818 | 1.05 | 1.28 | 1.24 | 1.11 | 0.14 | 0.193 | 0.249 | 0.161 | 0.27 | 0.25 | 0.413 | 0.215 | 0.29 | 0.24 |
| A-427 | – | 0.988 | 0.97 | 1.04 | 0.957 | 0.984 | 0.88 | 0.91 | 0.997 | 0.517 | 0.529 | 0.582 | 0.515 | 0.566 | 0.525 | 0.567 | 0.571 | 0.466 |
| ABC-1 | 0.64 | 0.993 | 1.1 | 0.929 | 0.846 | – | – | – | – | – | 1 | 1.16 | 1.29 | 1.16 | – | 0.84 | 0.383 | 0.308 |
| BEN | 0.672 | 0.772 | 0.648 | 0.424 | 0.672 | 0.0838 | 0.0769 | 0.0788 | 0.0609 | 0.586 | 0.756 | 0.652 | 0.649 | 0.728 | 0.684 | 0.712 | 0.718 | 0.741 |
| CAL-12T | 0.781 | 1.1 | 1.14 | 0.935 | 1.22 | 1.22 | 1.16 | 1.16 | 0.299 | – | – | – | – | – | – | – | – | – |
| COR-L23 | 0.979 | 0.856 | 1.06 | 0.973 | 1.02 | 0.905 | 0.877 | 0.505 | 0.123 | 0.436 | 0.457 | 0.398 | 0.372 | 0.467 | 0.439 | 0.315 | 0.317 | 0.169 |
| COR-L 105 | 0.775 | 0.986 | 1.03 | 1 | 0.964 | 0.672 | 0.892 | 0.783 | 0.501 | 0.642 | 0.653 | 0.641 | – | 0.625 | 0.552 | 0.671 | 0.519 | 0.442 |
| Calu-6 | 0.74 | 0.779 | 0.972 | 0.88 | 0.899 | 0.849 | 0.589 | 0.191 | 0.112 | – | – | – | – | – | – | – | – | – |
| ChaGo-K-1 | 0.974 | 0.911 | 0.959 | 0.866 | 0.949 | 1.14 | 0.928 | 0.785 | 0.93 | – | 0.521 | 0.589 | 0.532 | 0.596 | 0.473 | 0.563 | 0.515 | 0.545 |
| EBC-1 | 0.0847 | 0.105 | 0.0907 | 0.133 | 0.121 | 0.428 | 0.404 | 0.458 | 0.389 | – | – | – | – | – | – | – | – | – |
| EKVX | 0.201 | 0.739 | 0.749 | 0.852 | 0.833 | 0.854 | 0.989 | 1.01 | 0.704 | – | 0.282 | 0.361 | 0.369 | 0.353 | 0.332 | 0.389 | 0.312 | 0.228 |
| EMC-BAC-2 | 0.938 | 1.02 | 1.14 | – | 1.01 | 1.12 | 1.24 | 1.09 | 1.13 | 0.812 | 0.975 | 1.04 | – | 0.996 | 1.01 | 1.05 | 0.948 | 0.651 |
| EPLC-272H | 0.535 | 0.685 | 0.75 | 0.682 | 0.669 | 1.14 | 1.11 | 1.13 | 1.18 | 0.301 | 0.417 | 0.375 | 0.376 | 0.382 | 0.322 | 0.33 | 0.352 | 0.365 |
| H3255 | 0.874 | 0.84 | 1.14 | 1.07 | 0.763 | 0.491 | 0.523 | 0.487 | 0.525 | – | 0.576 | 0.674 | 0.601 | 0.738 | 0.533 | 0.645 | 0.622 | 0.558 |
| HARA | – | 0.832 | 0.952 | 0.942 | 0.913 | 1.11 | 1.14 | 1.13 | 1.14 | 0.456 | 0.518 | 0.743 | 0.522 | 0.703 | – | 0.566 | 0.578 | 0.57 |
| HCC-15 | – | 0.978 | 0.979 | – | 0.952 | 0.66 | 0.673 | 0.72 | 0.706 | 0.57 | 0.651 | 0.612 | 0.521 | 0.615 | 0.634 | 0.627 | 0.704 | 0.658 |
| HCC-44 | – | – | – | – | – | 0.983 | 1.04 | 0.988 | 0.914 | 0.864 | 0.798 | 0.905 | 0.996 | 0.855 | 0.936 | 1 | 0.929 | 0.964 |
| HCC-78 | 0.53 | 0.57 | 0.573 | 0.513 | 0.558 | 0.79 | 0.717 | 0.767 | 0.942 | 0.651 | 0.624 | 0.619 | 0.631 | 0.751 | 0.647 | 0.751 | 0.739 | 0.741 |
| HCC-366 | 0.884 | 0.921 | 0.992 | 0.914 | 0.946 | 1.08 | 1.04 | 0.989 | 0.843 | 0.313 | 0.334 | 0.352 | 0.331 | 0.314 | 0.358 | 0.366 | 0.345 | 0.316 |
